Some results are limits rather than exact numbers.

Data on two molecules can be found in paper PMC9506414, “Novel 2,6,9-Trisubstituted Purines as Potent CDK Inhibitors Alleviating Trastuzumab-Resistance of HER2-Positive Breast Cancers” (Pharmaceuticals, 2022).

One assay deals with CDK12/CyclinK (Homo sapiens, UniProt Q9NYV4). Kind of assay: Kinome-wide inhibition profiling. The arrangement: purchased Reaction Biology Corp. Format: biochemical. How it is done:
(§1) In vitro CDK12/cyclinK assays for all compounds and in vitro kinome-wide inhibition profiling of 30d at 10 μM were performed by a CRO company (Reaction Biology Corp., San Diego, CA, USA).

In a further assay the test system is HCC1954 cells. The assay is described as follows: Combination with trastuzumab, growth inhibition. Format: cell-based, human. The note with it: 40 nM 30d with multiple doses of trastuzumab, 72 h. How it is done: (§2) Additionally, we examined a combination effect in both SK-Br3 and HCC1954 cells.
(§3) Breast-cancer cells in culture media (100 μL volume/well, 5000 SK-Br3 cells/well, 1000 HCC-1954 cells/well) were seeded in tissue culture-treated 96-well plates, and incubated at a cell incubator for 24 h. Serially diluted compounds (3-fold, 10 point from 10 mM, duplicated) were pre-plated and 500 nL of compound solutions were pin-transferred to the cells in the assay plates using pintool system (JANUS liquid handler, PerkinElmer, Waltham, MA, USA) and incubated at a cell incubator for 72 h. Cell-titer Glo^TM reagent (50 μL, Promega Corp., Madison, WI, USA) was added to each well, and the luminescence signal was read using an Envision^TM plate reader (PerkinElmer, Waltham, MA, USA). The titration curve fitting and IC50 values were generated using Prism 7.0 s/w (GraphPad, San Diego, CA, USA).

In another assay the test system is SK-Br3 cells. The assay is described as follows: Combination with trastuzumab, growth inhibition. Format: cell-based, human. The note with it: 40 nM 30d with multiple doses of trastuzumab, 72 h. How it is done: as §2, §3
The next assay has as its system PKAC-alpha. Kind of assay: Kinome-wide inhibition profiling. The note with it: 10 μM. Format: biochemical, human. How it is done:
as §1

Another assay relates to ERK8. The arrangement: method as in HMS LINCS database. As to conditions: 10 μM, ref HMS LINCS database; cited from earlier work.
For another assay, the target named is T1, DYRK1B (Homo sapiens, UniProt Q9Y463).
T1 construct: purchased Reaction Biology Corp
T1 sequence (Q9Y463 whole entry): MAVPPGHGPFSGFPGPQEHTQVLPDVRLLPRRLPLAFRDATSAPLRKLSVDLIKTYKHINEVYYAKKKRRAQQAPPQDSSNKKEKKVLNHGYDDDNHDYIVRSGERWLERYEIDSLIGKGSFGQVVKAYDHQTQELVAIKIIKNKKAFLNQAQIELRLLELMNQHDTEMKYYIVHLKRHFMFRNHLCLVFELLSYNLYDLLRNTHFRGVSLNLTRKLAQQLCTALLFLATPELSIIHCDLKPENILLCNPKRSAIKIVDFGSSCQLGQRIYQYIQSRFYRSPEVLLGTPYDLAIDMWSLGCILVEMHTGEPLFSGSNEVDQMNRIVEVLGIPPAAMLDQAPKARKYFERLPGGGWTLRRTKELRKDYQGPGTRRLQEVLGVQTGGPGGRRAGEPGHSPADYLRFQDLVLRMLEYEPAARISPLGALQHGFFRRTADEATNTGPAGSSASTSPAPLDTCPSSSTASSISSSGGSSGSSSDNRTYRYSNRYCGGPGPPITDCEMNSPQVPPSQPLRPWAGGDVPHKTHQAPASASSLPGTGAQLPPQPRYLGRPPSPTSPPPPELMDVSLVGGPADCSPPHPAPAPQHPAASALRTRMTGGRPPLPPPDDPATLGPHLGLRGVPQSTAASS
Details: method as in HMS LINCS database. The note with it: 10 μM, ref HMS LINCS database; cited from earlier work.

Another assay deals with T2, TAOK2 (Homo sapiens, UniProt Q9UL54).
T2 construct: purchased Reaction Biology Corp
The arrangement: method as in HMS LINCS database. As to conditions: 10 μM, ref HMS LINCS database; cited from earlier work.

A further assay has as its system CDK4-cyclinD1. The arrangement: method as in HMS LINCS database. As to conditions: 10 μM, ref HMS LINCS database; cited from earlier work.
The target in the next assay is T3, TAOK3 (Homo sapiens, UniProt Q9H2K8).
T3 construct: purchased Reaction Biology Corp
The arrangement: method as in HMS LINCS database. As to conditions: 10 μM, ref HMS LINCS database; cited from earlier work.

The target of a further assay is T4, TLK2 (Homo sapiens, UniProt Q86UE8).
T4 construct: purchased Reaction Biology Corp
T4 sequence (Q86UE8 whole entry): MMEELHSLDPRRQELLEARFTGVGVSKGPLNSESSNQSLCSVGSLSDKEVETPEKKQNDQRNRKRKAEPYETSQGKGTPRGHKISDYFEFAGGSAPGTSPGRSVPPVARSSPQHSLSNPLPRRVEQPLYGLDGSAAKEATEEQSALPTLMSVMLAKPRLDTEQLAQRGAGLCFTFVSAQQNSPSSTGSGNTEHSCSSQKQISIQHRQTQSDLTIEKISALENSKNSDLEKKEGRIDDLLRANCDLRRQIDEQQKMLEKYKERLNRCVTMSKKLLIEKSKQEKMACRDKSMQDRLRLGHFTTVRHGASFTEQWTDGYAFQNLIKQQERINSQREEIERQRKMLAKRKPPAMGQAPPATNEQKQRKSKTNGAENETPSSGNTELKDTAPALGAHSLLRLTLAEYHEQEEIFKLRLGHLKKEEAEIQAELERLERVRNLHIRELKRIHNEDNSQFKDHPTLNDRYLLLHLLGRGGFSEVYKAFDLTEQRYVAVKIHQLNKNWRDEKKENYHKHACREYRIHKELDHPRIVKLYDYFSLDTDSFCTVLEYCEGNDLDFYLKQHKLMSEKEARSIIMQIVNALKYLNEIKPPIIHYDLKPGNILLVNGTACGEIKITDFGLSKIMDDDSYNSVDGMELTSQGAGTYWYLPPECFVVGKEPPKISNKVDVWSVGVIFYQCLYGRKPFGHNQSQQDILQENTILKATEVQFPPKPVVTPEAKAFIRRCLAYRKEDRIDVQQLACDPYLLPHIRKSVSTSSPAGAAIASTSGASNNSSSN
The arrangement: method as in HMS LINCS database. The note with it: 10 μM, ref HMS LINCS database; cited from earlier work.

The target of another assay is T5, CLK4 (Homo sapiens, UniProt Q9HAZ1).
T5 construct: purchased Reaction Biology Corp
Details: method as in HMS LINCS database. As to conditions: 10 μM, ref HMS LINCS database; cited from earlier work.

Another assay has as its target T6, GSK3a (Homo sapiens, UniProt P49840).
T6 construct: purchased Reaction Biology Corp
Details: method as in HMS LINCS database. As to conditions: 10 μM, ref HMS LINCS database; cited from earlier work.

The test system of the next assay is CDKL5. The arrangement: method as in HMS LINCS database. The note with it: 10 μM, ref HMS LINCS database; cited from earlier work.
Another assay deals with T7, TAOK1 (Homo sapiens, UniProt Q7L7X3).
T7 construct: purchased Reaction Biology Corp
T7 sequence (Q7L7X3 whole entry): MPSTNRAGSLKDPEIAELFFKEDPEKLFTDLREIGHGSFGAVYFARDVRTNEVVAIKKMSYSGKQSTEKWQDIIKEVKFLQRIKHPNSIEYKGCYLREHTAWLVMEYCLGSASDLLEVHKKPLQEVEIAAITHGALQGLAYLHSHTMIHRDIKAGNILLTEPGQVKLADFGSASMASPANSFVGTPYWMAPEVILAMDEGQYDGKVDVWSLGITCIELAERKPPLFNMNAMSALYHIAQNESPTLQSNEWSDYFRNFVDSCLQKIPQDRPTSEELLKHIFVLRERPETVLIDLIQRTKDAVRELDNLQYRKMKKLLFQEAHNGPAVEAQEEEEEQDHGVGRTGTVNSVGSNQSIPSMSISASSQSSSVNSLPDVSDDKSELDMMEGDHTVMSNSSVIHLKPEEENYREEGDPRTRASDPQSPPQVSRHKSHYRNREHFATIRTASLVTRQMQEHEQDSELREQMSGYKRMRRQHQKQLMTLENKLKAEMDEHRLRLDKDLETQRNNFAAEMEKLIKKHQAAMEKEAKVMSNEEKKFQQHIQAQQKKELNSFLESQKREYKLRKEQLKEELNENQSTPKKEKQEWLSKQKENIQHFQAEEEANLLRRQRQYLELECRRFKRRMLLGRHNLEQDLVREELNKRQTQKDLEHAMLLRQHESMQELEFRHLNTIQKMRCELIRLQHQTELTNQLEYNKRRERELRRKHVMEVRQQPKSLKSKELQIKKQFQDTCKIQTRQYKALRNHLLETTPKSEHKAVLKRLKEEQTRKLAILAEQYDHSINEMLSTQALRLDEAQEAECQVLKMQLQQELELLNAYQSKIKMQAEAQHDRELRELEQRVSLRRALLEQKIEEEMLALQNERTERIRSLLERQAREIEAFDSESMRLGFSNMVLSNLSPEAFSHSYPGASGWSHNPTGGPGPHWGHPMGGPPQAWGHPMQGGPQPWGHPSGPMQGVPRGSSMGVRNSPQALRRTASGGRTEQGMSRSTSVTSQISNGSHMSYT
Details: method as in HMS LINCS database. As to conditions: 10 μM, ref HMS LINCS database; cited from earlier work.

A further assay addresses T8, ERK5 (Homo sapiens, UniProt Q13164).
T8 construct: purchased Reaction Biology Corp
Details: method as in HMS LINCS database. The note with it: 10 μM, ref HMS LINCS database; cited from earlier work.

The next assay has as its target T9, HIPK2 (Homo sapiens, UniProt Q9H2X6).
T9 construct: purchased Reaction Biology Corp
Details: method as in HMS LINCS database. As to conditions: 10 μM, ref HMS LINCS database; cited from earlier work.

The next assay concerns PFPK5(P.falciparum). Details: method as in HMS LINCS database. As to conditions: 10 μM, ref HMS LINCS database; cited from earlier work.
Another assay addresses T10, ICK (Homo sapiens, UniProt Q9UPZ9).
T10 construct: purchased Reaction Biology Corp
The arrangement: method as in HMS LINCS database. As to conditions: 10 μM, ref HMS LINCS database; cited from earlier work.

The next assay concerns CDK3. The arrangement: method as in HMS LINCS database. The note with it: 10 μM, ref HMS LINCS database; cited from earlier work.
In a further assay the test system is CDKL1. The arrangement: method as in HMS LINCS database. The note with it: 10 μM, ref HMS LINCS database; cited from earlier work.
The next assay concerns CDKL2. The arrangement: method as in HMS LINCS database. As to conditions: 10 μM, ref HMS LINCS database; cited from earlier work.

CDK12/CyclinK, sequence (Q9NYV4 whole entry): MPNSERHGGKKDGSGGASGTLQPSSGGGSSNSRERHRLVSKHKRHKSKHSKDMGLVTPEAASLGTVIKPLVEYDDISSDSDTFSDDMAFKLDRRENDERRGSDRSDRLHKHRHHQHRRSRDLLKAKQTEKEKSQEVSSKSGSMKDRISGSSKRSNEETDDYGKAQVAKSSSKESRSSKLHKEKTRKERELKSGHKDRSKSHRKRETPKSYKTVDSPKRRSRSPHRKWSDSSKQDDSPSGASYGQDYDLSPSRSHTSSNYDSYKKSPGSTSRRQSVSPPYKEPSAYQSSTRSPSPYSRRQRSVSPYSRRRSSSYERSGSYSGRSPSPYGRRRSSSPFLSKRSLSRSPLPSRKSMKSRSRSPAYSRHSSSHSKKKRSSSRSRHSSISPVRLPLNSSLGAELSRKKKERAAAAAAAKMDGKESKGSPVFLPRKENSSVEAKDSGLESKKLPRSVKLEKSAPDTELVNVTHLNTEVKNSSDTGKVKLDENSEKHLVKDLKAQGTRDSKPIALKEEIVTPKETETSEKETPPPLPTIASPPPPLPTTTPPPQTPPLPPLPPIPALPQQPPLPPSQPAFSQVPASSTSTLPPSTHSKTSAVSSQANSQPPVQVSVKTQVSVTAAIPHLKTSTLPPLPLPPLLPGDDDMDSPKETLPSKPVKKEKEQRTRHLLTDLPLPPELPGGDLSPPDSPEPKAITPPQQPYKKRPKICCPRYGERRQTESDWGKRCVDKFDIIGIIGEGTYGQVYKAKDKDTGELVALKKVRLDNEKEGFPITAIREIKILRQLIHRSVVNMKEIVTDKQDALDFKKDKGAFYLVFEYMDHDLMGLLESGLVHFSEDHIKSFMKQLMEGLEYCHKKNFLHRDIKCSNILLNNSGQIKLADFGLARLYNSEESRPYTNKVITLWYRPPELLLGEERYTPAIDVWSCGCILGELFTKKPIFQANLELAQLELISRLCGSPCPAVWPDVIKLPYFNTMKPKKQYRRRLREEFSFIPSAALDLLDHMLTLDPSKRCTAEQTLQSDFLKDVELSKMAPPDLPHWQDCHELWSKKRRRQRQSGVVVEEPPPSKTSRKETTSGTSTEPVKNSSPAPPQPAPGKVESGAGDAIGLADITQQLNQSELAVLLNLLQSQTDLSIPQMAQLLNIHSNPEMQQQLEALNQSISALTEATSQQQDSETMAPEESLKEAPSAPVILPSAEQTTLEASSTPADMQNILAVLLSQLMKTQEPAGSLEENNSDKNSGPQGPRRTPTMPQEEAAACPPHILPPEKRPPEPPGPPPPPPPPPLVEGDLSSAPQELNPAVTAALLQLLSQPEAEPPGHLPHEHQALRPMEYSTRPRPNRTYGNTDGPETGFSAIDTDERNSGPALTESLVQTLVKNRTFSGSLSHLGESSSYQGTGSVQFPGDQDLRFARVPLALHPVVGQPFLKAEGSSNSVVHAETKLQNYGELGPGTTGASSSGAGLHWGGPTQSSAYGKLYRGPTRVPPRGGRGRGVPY
CDK12/CyclinK, sequence (O75909 whole entry partner): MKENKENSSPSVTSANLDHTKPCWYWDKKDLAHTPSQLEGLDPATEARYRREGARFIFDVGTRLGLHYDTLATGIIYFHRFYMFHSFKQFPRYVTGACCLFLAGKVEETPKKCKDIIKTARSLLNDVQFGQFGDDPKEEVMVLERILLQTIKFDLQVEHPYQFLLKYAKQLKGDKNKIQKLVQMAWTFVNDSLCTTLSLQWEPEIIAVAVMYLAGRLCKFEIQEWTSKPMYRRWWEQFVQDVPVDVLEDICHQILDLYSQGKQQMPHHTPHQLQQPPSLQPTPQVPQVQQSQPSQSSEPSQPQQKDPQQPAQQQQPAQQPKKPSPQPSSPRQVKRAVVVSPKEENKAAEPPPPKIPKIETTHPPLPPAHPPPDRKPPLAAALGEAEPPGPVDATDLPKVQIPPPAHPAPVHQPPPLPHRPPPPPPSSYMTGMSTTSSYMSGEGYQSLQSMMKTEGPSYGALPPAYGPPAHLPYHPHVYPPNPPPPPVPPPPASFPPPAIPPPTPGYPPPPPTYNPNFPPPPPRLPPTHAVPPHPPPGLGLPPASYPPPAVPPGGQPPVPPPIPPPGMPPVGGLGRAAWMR
T10 sequence (Q9UPZ9 whole entry): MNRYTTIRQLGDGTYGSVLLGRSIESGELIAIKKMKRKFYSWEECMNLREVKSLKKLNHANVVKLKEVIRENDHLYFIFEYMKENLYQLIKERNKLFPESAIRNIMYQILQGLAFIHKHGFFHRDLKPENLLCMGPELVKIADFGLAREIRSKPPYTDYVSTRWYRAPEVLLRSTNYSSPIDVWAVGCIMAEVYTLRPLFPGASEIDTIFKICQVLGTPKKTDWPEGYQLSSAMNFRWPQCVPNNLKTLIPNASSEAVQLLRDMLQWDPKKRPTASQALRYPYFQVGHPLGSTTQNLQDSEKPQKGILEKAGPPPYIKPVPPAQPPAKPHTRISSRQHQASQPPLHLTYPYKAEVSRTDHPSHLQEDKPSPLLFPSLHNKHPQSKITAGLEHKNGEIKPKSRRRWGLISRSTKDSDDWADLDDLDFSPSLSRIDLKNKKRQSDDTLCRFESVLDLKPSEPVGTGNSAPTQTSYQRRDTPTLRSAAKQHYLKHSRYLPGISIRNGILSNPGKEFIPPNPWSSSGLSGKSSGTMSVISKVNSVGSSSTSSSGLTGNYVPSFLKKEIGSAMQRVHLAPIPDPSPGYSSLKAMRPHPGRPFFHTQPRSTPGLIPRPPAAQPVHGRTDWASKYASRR

At CDK12/CyclinK, `CCn1cnc2c(NCc3ccc(-c4ccccn4)nc3)nc(-c3ccc(N)nc3)nc21` [Compound 30d, N-([2,2′-Bipyridin]-5-ylmethyl)-2-(6-aminopyridin-3-yl)-9-ethyl-9H-purin-6-amine] had an inhibition at 10 µM of over 95% and a remaining activity at 10 µM of 1.1%. The “combination effect with trastuzumab in growth inhibition” value with HCC1954 cells is “modest level of synergism”. Moreover, in the assay with SK-Br3 cells, the “combination effect with trastuzumab in growth inhibition” value was “modest level of synergism”. Besides, in the assay with PKAC-alpha, the “% remaining activity” value is on record as 62.4%.

As for `CCc1cnn2c(NCc3ccc[n+]([O-])c3)cc(N3CCCC[C@H]3CCO)nc12` [Dinaciclib], the “% control” value in the assay with ERK8 is 1.0%; on DYRK1B, 6.0%; at TAOK2, 4.8%; in the assay on CDK4-cyclinD1, 0.1%; on TAOK3, 3.8%; on TLK2, 0.5%. Moreover, the “% control” value on CLK4 is given as 5.1%; on GSK3a it was 3.0%; in the assay on CDKL5, 1.6%; on TAOK1 it was 3.1%; on ERK5, 2.9%; on HIPK2, 3.6%. For the same molecule, the “% control” value in the assay on PFPK5(P.falciparum) is listed as 1.2%; on ICK, 0.9%; in the assay on CDK3 it was 0.3%; in the assay on CDKL1 it was 9.1%; with CDKL2 it was 10%.
